Laboratory results as given in US5880111A, “Therapeutic derivations of diphosphonates” (priority 1995, dated 1999).
In brackets after ≈: the same amount, converted by molar mass. Like-named read-outs stand apart in the source and are kept apart here.

Columns and labels:
Test in all cases: MIC by broth-dilution method
Format in all cases: cell-based
[1] = system: Staphylococcus aureus ATCC 25923
Method: (§1) The antibacterial action of the product was evaluated against the following bacterial strains:
Gram positive bacteria: Staphylococcus aureus ATCC 25923
(§2) The sensitivity of the foregoing bacterial strains to both the product of Example 1 and norfloxacin was investigated by the broth-dilution method, and the minimal inhibitory concentration (MIC) values were assessed. MIC was defined as the lowest concentration ([…]) at which no bacterial growth could be observed visually.
(§3) The antibiotics were dissolved in dimethylsulfoxide (DMSO) and the solution was diluted by nine consecutive 2-fold dilutions in Nutrient-broth (NB) culture medium. Aliquots (0.2 ml) from each of these diluted solutions were added to test tubes containing 1.6 ml NB culture medium. The antibiotics were investigated in the concentration range of 100-0.38 μg/ml.
(§4) After overnight culture in NB at 37° C., the bacterial cultures were diluted so that their optical densities (OD) at 620 nm were between 0.08-0.1.
(§5) Incubation of the test tubes took place in a thermostat at 37° C. The test tubes were inspected visually after 24 and 48 hours. The margin of error of in vitro sensitivity determination was ± one dilution step. MIC values were read after 48 hours of incubation. The MIC value was the lowest antibiotic concentration at which no bacterial growth was observed, i.e. the culture medium remained clear. […]

[2] = system: Staphylococcus epidermidis OKI 110001
Method: as §1
Staphylococcus epidermidis OKI 110001
as §2, §3, §4, §5

[3] = system: Streptococcus faecalis OKI 80171; conditions: Enterococcus faecalis, OKI80171, Nutrient-broth, 37° C., read after 48 hours, mean of three independent experiments
Method: as §1
Streptococcus faecalis OKI 80171
as §2, §3, §4, §5

[4] = system: Salmonella typhi OKI 10084; conditions: Salmonella enterica
Method: as §1
Gram negative bacteria: Salmonella typhi OKI 10084
as §2, §3, §4, §5

[5] = system: Escherichia coli OKI 35034
Method: as §1
Escherichia coli OKI 35034
as §2, §3, §4, §5

[6] = system: Proteus vulgaris OKI 60002
Method: as §1
Proteus vulgaris OKI 60002
as §2, §3, §4, §5

[7] = system: Pseudomonas aeruginosa ATCC 27853
Method: as §1
Pseudomonas aeruginosa ATCC 27853
as §2, §3, §4, §5

Row | Compound | MIC ([1]; ATCC25923, Staphylococcus aureus ATCC 25923, Nutrient-broth, 37° C., read after 48 hours, mean of three independent experiments, read-out: MIC) [µg/mL] | MIC ([2]; OKI110001, Staphylococcus epidermidis OKI 110001, Nutrient-broth, 37° C., read after 48 hours, only two experiments, read-out: MIC) [µg/mL] | MIC [3] [µg/mL] | MIC ([4]; TYPHI, 48 h) [µg/mL] | MIC ([5]; OKI35034, Escherichia coli OKI 35034, Nutrient-broth, 37° C., read after 48 hours, mean of three independent experiments, read-out: MIC) [µg/mL] | MIC ([6]; OKI60002, Proteus vulgaris OKI 60002, Nutrient-broth, 37° C., read after 48 hours, mean of three independent experiments, read-out: MIC) [µg/mL] | MIC ([7]; ATCC27853, Pseudomonas aeruginosa ATCC 27853, Nutrient-broth, 37° C., read after 48 hours, mean of three independent experiments, read-out: MIC) [µg/mL] | MIC ([1]; Staphylococcus aureus, ATCC25923, 48 h) [µg/mL] | MIC ([2]; Staphylococcus epidermidis, OKI110001, 48 h) [µg/mL] | MIC ([4]; Salmonella typhi OKI 10084, Nutrient-broth, 37° C., read after 48 hours, mean of three independent experiments, read-out: MIC) [µg/mL] | MIC ([5]; Escherichia coli, OKI35034, 48 h) [µg/mL] | MIC ([6]; Proteus vulgaris, OKI60002, 48 h) [µg/mL] | MIC ([7]; Pseudomonas aeruginosa, ATCC27853, 48 h) [µg/mL]
1 | CCn1cc(C(=O)O)c(=O)c2cc(F)c(N3CCNCC3)cc21 [NORFLOXACIN, norfloxacin] | 6.25 (≈ 19.6 µM) | 6.25 (≈ 19.6 µM) | 12.5 (≈ 39.1 µM) | 12.5 (≈ 39.1 µM) | 6.25 (≈ 19.6 µM) | 6.25 (≈ 19.6 µM) | 25 (≈ 78.3 µM) | – | – | – | – | – | –
2 | CCOP(=O)(OCC)C(CN1CCN(c2cc3c(cc2F)c(=O)c(C(=O)O)cn3CC)CC1)P(=O)(OCC)OCC [Example 1, 6-Fluoro-1-ethyl-7-{4-[2,2-bis(diethoxyphosphono)-1-ethyl]-l-piperazyl}-4-oxo-1,4-dihydroquinoline-3-carboxylic acid] | – | – | 12.5 (≈ 20.2 µM) | – | – | – | – | 12.5 (≈ 20.2 µM) | 12.5 (≈ 20.2 µM) | 25 (≈ 40.4 µM) | 25 (≈ 40.4 µM) | 3.12 (≈ 5.04 µM) | 50 (≈ 80.7 µM)
